According to the supplement of paper PMC10307832:

Key:
Experiment in all cases: relative viability (nuclei count vs DMSO), 5 days (fraction); higher = more cells survive
Sorafenib + Linsitinib = compound: CNC(=O)c1cc(Oc2ccc(NC(=O)Nc3ccc(Cl)c(C(F)(F)F)c3)cc2)ccn1 [Sorafenib] + C[C@]1(O)C[C@@H](c2nc(-c3ccc4ccc(-c5ccccc5)nc4c3)c3c(N)nccn32)C1 [Linsitinib] (partner 1 µM)
Summary of the method: (§1)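 Relative viability divides the nuclei count in treated wells by that in vehicle wells. Lung cancer cell lines were seeded in 1536-well plates, dosed by pin tool the next day, and fixed and stained after 5 days in one step with final 0.05% Triton X-100, 1% formaldehyde and 1 ug/ml Hoechst. Dosing was a single drug or a fixed anchor-drug dose plus five library-drug doses (not always all listed) in √10 steps, and values are medians of duplicate plates imaged at 4×.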

Sorafenib + Alpelisib = compound: CNC(=O)c1cc(Oc2ccc(NC(=O)Nc3ccc(Cl)c(C(F)(F)F)c3)cc2)ccn1 [Sorafenib] + Cc1nc(NC(=O)N2CCC[C@H]2C(N)=O)sc1-c1ccnc(C(C)(C)C(F)(F)F)c1 [Alpelisib] (partner 2 µM)
Summary of the method: as §1

Sorafenib + Navitoclax = compound: CNC(=O)c1cc(Oc2ccc(NC(=O)Nc3ccc(Cl)c(C(F)(F)F)c3)cc2)ccn1 [Sorafenib] + CC1(C)CCC(c2ccc(Cl)cc2)=C(CN2CCN(c3ccc(C(=O)NS(=O)(=O)c4ccc(N[C@H](CCN5CCOCC5)CSc5ccccc5)c(S(=O)(=O)C(F)(F)F)c4)cc3)CC2)C1 [Navitoclax] (partner 0.5 µM)
Summary of the method: as §1

Sorafenib + Lapatinib = compound: CNC(=O)c1cc(Oc2ccc(NC(=O)Nc3ccc(Cl)c(C(F)(F)F)c3)cc2)ccn1 [Sorafenib] + CS(=O)(=O)CCNCc1ccc(-c2ccc3ncnc(Nc4ccc(OCc5cccc(F)c5)c(Cl)c4)c3c2)o1 [Lapatinib] (partner 2 µM)
Summary of the method: as §1

Sorafenib + Olaparib = compound: CNC(=O)c1cc(Oc2ccc(NC(=O)Nc3ccc(Cl)c(C(F)(F)F)c3)cc2)ccn1 [Sorafenib] + O=C(c1cc(Cc2n[nH]c(=O)c3ccccc23)ccc1F)N1CCN(C(=O)C2CC2)CC1 [Olaparib] (partner 8 µM)
Summary of the method: as §1

Sorafenib + Foretinib = compound: CNC(=O)c1cc(Oc2ccc(NC(=O)Nc3ccc(Cl)c(C(F)(F)F)c3)cc2)ccn1 [Sorafenib] + COc1cc2c(Oc3ccc(NC(=O)C4(C(=O)Nc5ccc(F)cc5)CC4)cc3F)ccnc2cc1OCCCN1CCOCC1 [Foretinib] (partner 0.25 µM)
Summary of the method: as §1

Sorafenib + Bortezomib = compound: CNC(=O)c1cc(Oc2ccc(NC(=O)Nc3ccc(Cl)c(C(F)(F)F)c3)cc2)ccn1 [Sorafenib] + CC(C)C[C@H](NC(=O)[C@H](Cc1ccccc1)NC(=O)c1cnccn1)B(O)O [Bortezomib] (partner 0.002 µM)
Summary of the method: as §1

Sorafenib + Crizotinib = compound: CNC(=O)c1cc(Oc2ccc(NC(=O)Nc3ccc(Cl)c(C(F)(F)F)c3)cc2)ccn1 [Sorafenib] + C[C@@H](Oc1cc(-c2cnn(C3CCNCC3)c2)cnc1N)c1c(Cl)ccc(F)c1Cl [Crizotinib] (partner 1 µM)
Summary of the method: as §1

Sorafenib + Pictilisib = compound: CNC(=O)c1cc(Oc2ccc(NC(=O)Nc3ccc(Cl)c(C(F)(F)F)c3)cc2)ccn1 [Sorafenib] + CS(=O)(=O)N1CCN(Cc2cc3nc(-c4cccc5[nH]ncc45)nc(N4CCOCC4)c3s2)CC1 [Pictilisib] (partner 1 µM)
Summary of the method: as §1

Sorafenib = compound: CNC(=O)c1cc(Oc2ccc(NC(=O)Nc3ccc(Cl)c(C(F)(F)F)c3)cc2)ccn1 [Sorafenib]
Summary of the method: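 Lung cancer cell lines in 1536-well plates were kept overnight at 37 °C, then pinned with five library-drug doses (not always all listed) spaced by √10 on vehicle-anchored plates. After 5 days without medium change, cells were fixed, permeabilised and Hoechst-stained in one step, imaged at 4×, and nuclei were counted with MetaXpress. Viability is treated-well nuclei divided by vehicle-well nuclei, taken as the median over plates. Plates passed only with control CV below 25% and at least one doubling.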

Sorafenib + Dasatinib = compound: CNC(=O)c1cc(Oc2ccc(NC(=O)Nc3ccc(Cl)c(C(F)(F)F)c3)cc2)ccn1 [Sorafenib] + Cc1nc(Nc2ncc(C(=O)Nc3c(C)cccc3Cl)s2)cc(N2CCN(CCO)CC2)n1 [Dasatinib] (partner 0.075 µM)
Summary of the method: as §1

Sorafenib + Tozasertib = compound: CNC(=O)c1cc(Oc2ccc(NC(=O)Nc3ccc(Cl)c(C(F)(F)F)c3)cc2)ccn1 [Sorafenib] + Cc1cc(Nc2cc(N3CCN(C)CC3)nc(Sc3ccc(NC(=O)C4CC4)cc3)n2)n[nH]1 [Tozasertib] (partner 0.1 µM)
Summary of the method: as §1

Sorafenib + Luminespib = compound: CNC(=O)c1cc(Oc2ccc(NC(=O)Nc3ccc(Cl)c(C(F)(F)F)c3)cc2)ccn1 [Sorafenib] + CCNC(=O)c1noc(-c2cc(C(C)C)c(O)cc2O)c1-c1ccc(CN2CCOCC2)cc1 [Luminespib] (partner 0.01 µM)
Summary of the method: as §1

Sorafenib + Phenformin = compound: CNC(=O)c1cc(Oc2ccc(NC(=O)Nc3ccc(Cl)c(C(F)(F)F)c3)cc2)ccn1 [Sorafenib] + N=C(N)NC(=N)NCCc1ccccc1 [Phenformin] (partner 250 µM)
Summary of the method: as §1

Sorafenib + OSI-027 = compound: CNC(=O)c1cc(Oc2ccc(NC(=O)Nc3ccc(Cl)c(C(F)(F)F)c3)cc2)ccn1 [Sorafenib] + COc1cccc2cc(-c3nc([C@H]4CC[C@H](C(=O)O)CC4)n4ncnc(N)c34)[nH]c12 [OSI-027] (partner 0.5 µM)
Summary of the method: as §1

NCI-H1299
relative viability (Sorafenib + Linsitinib; first compound 0.08 µM): 0.947 | relative viability (Sorafenib + Linsitinib; first compound 0.253 µM): 0.88 | relative viability (Sorafenib + Linsitinib; first compound 2.53 µM): 0.875 | relative viability (Sorafenib + Linsitinib; first compound 8 µM): 0.946 | relative viability (Sorafenib + Alpelisib; first compound 0.08 µM): 1.06 | relative viability (Sorafenib + Alpelisib; first compound 0.253 µM): 0.982 | relative viability (Sorafenib + Alpelisib; first compound 2.53 µM): 0.962 | relative viability (Sorafenib + Alpelisib; first compound 8 µM): 0.877 | relative viability (Sorafenib + Navitoclax; first compound 0.08 µM): 1.07 | relative viability (Sorafenib + Navitoclax; first compound 0.253 µM): 1.05 | relative viability (Sorafenib + Navitoclax; first compound 2.53 µM): 1.01 | relative viability (Sorafenib + Navitoclax; first compound 8 µM): 0.573 | relative viability (Sorafenib + Lapatinib; first compound 0.08 µM): 0.933 | relative viability (Sorafenib + Lapatinib; first compound 0.253 µM): 0.86 | relative viability (Sorafenib + Lapatinib; first compound 2.53 µM): 0.874 | relative viability (Sorafenib + Lapatinib; first compound 8 µM): 0.802 | relative viability (Sorafenib + Olaparib; first compound 0.08 µM): 0.903 | relative viability (Sorafenib + Olaparib; first compound 0.253 µM): 0.894 | relative viability (Sorafenib + Olaparib; first compound 2.53 µM): 0.882 | relative viability (Sorafenib + Olaparib; first compound 8 µM): 0.537 | relative viability (Sorafenib + Foretinib; first compound 0.08 µM): 1.09 | relative viability (Sorafenib + Foretinib; first compound 0.253 µM): 1.08 | relative viability (Sorafenib + Foretinib; first compound 2.53 µM): 1.02 | relative viability (Sorafenib + Foretinib; first compound 8 µM): 1.05 | relative viability (Sorafenib + Bortezomib; first compound 0.08 µM): 1.02 | relative viability (Sorafenib + Bortezomib; first compound 0.253 µM): 1.04 | relative viability (Sorafenib + Bortezomib; first compound 2.53 µM): 1.01 | relative viability (Sorafenib + Bortezomib; first compound 8 µM): 0.952 | relative viability (Sorafenib + Crizotinib; first compound 0.08 µM): 0.9 | relative viability (Sorafenib + Crizotinib; first compound 0.253 µM): 0.859 | relative viability (Sorafenib + Crizotinib; first compound 2.53 µM): 0.907 | relative viability (Sorafenib + Crizotinib; first compound 8 µM): 0.688 | relative viability (Sorafenib + Pictilisib; first compound 0.08 µM): 0.867 | relative viability (Sorafenib + Pictilisib; first compound 0.253 µM): 0.487 | relative viability (Sorafenib + Pictilisib; first compound 2.53 µM): 0.64 | relative viability (Sorafenib + Pictilisib; first compound 8 µM): 0.253 | relative viability (Sorafenib; 0.08 µM): 1.02 | relative viability (Sorafenib; 0.253 µM): 0.963 | relative viability (Sorafenib; 2.53 µM): 0.957 | relative viability (Sorafenib; 8 µM): 0.922

NCI-H1623
relative viability (Sorafenib + Dasatinib; first compound 0.08 µM): 0.537 | relative viability (Sorafenib + Dasatinib; first compound 0.253 µM): 0.552 | relative viability (Sorafenib + Dasatinib; first compound 2.53 µM): 0.604 | relative viability (Sorafenib + Dasatinib; first compound 8 µM): 0.429 | relative viability (Sorafenib + Tozasertib; first compound 0.08 µM): 0.431 | relative viability (Sorafenib + Tozasertib; first compound 0.253 µM): 0.397 | relative viability (Sorafenib + Tozasertib; first compound 2.53 µM): 0.476 | relative viability (Sorafenib + Tozasertib; first compound 8 µM): 0.411 | relative viability (Sorafenib + Foretinib; first compound 0.08 µM): 1.06 | relative viability (Sorafenib + Foretinib; first compound 0.253 µM): 0.852 | relative viability (Sorafenib + Foretinib; first compound 2.53 µM): 0.975 | relative viability (Sorafenib + Foretinib; first compound 8 µM): 0.776 | relative viability (Sorafenib + Luminespib; first compound 0.08 µM): 0.544 | relative viability (Sorafenib + Luminespib; first compound 0.253 µM): 0.366 | relative viability (Sorafenib + Luminespib; first compound 2.53 µM): 0.611 | relative viability (Sorafenib + Luminespib; first compound 8 µM): 0.342 | relative viability (Sorafenib + Phenformin; first compound 0.08 µM): 0.651 | relative viability (Sorafenib + Phenformin; first compound 0.253 µM): 0.562 | relative viability (Sorafenib + Phenformin; first compound 2.53 µM): 0.66 | relative viability (Sorafenib + Phenformin; first compound 8 µM): 0.521 | relative viability (Sorafenib + OSI-027; first compound 0.08 µM): 0.414 | relative viability (Sorafenib + OSI-027; first compound 0.253 µM): 0.411 | relative viability (Sorafenib + OSI-027; first compound 2.53 µM): 0.5 | relative viability (Sorafenib + OSI-027; first compound 8 µM): 0.37 | relative viability (Sorafenib; 0.08 µM): 0.977 | relative viability (Sorafenib; 0.253 µM): 0.898 | relative viability (Sorafenib; 2.53 µM): 1.06 | relative viability (Sorafenib; 8 µM): 0.945
